Data set [1] relates to HK100 cells. Description: Incorporation of other analogues and precursors into FAS-TE L2222TAG (Ni-NTA, SDS-PAGE, Bradford). It counts as cell-based, Escherichia coli. The note with it: for full-length protein production / PCL biosynthesis from precursor: Escherichia coli cells with pylB/pylC/pylD/pylS/pylT; for Bradford: 25 ml culture.
The conditions of data set [2]: pH 5.
Data set [3] has as its target T1, pylS tRNA synthetase (Methanosarcina mazei, UniProt Q8PWY1).
T1 construct: expressed in transfected cells; host or cells: HEK293F
In words: Incorporation test with synthetic pyrrolysine analogues (full-length hRBP4 mutant #6). The note with it: 2 or 5 mM analogue, HEK293F cells with pylT/pylS only, Western blot and SDS-PAGE. The data set is classed as cell-based. How it is done:
In parallel to the above experiment, the production of full-length hRBP4 Phe122PCL protein (mutant #6) was also measured in the presence of a series of synthetic pyrrolysine analogues designed with an acetyl moiety for chemical derivatization after protein incorporation (FIG. 14B). The synthetic analogues were prepared as described in Example 19. pRSRBP was co-transfected into HEK293F cells with pCMVpyS which supplies one gene copy of pylT tRNA and of pylS tRNA synthetase. Depending on solubility, the synthetic analogues were added to the media either at 2 or 5 mM final concentration.
A general note: Immunoblotting shows a protein as a band on a membrane.

Data set [4] relates to HEK293F cells. In words: Incorporation test with putative PCL and pyrrolysine precursors (full-length hRBP4 Phe122PCL). The data set is classed as cell-based, human. The note with it: 5 mM precursor; HEK293F cells with pylT, pylS, pylB, pylC, pylD; Western blot and SDS-PAGE of Ni-NTA purified samples. As for the experimental part: The production of full-length hRBP4 Phe122PCL protein (mutant #6) was measured in the presence of the putative PCL precursor D-ornithine, D-proline, D-arginine, D-glutamic acid, 4-hydroxyl-D-proline and 2-pyrrolidone-5-carboxylic acid (FIGS. 13A and B, FIG. 14A). pRSRBP was co-transfected into HEK293F cells with pCMVpyS, pCMVpyB, pCMVpyC and pCMVpyD and cells were grown in the presence of 5 mM of the putative precursor (FIG. 14A) as described in Example 2.

Data set [5] deals with PylD. In words: NMR evaluation of Lys-Nε-D-Orn as substrate for PylD. It counts as biochemical, Methanosarcina mazei.
Data set [6] is described as follows: Compound stability (degradation measured by nuclear magnetic resonance spectroscopy). It counts as physicochemical.
Where [7] appears, read: purified FAS-TE from HK100 cells with pylB/pylC/pylD/pylS/pylT (lanes 5-11).

“Also recorded” adds a separate entry of the source. Counter-ions that a name gives are not always drawn.

T1 sequence (Q8PWY1 whole entry): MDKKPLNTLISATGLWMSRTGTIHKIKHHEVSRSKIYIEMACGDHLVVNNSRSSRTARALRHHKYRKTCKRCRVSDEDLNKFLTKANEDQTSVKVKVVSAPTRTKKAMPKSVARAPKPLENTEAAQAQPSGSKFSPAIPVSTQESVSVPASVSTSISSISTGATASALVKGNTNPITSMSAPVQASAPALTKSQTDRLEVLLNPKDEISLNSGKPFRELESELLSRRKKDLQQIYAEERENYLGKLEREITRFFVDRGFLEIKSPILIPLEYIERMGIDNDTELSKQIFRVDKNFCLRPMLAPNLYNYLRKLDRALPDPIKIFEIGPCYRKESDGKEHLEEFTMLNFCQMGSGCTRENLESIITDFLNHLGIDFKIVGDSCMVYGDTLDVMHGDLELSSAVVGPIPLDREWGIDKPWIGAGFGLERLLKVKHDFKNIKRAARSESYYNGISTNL

For `O=C(O)C1CCC=N1` (racemic) [P5C, Ammonium DL-1-pyrroline-5-carboxylate], the “full-length protein production / PCL biosynthesis from precursor” value in data set [1] is reported as “failed to produce full-length protein; also recorded: not sufficient to support PCL biosynthesis”. In data set [1] (setting [7]), the Bradford turned out to be 0.075 mg/25 ml.

Take `N[C@@H](CCCCNC(=O)C1CCC=N1)C(=O)O` (mixture of isomers) [PCL-A, (S)-2-amino-6-(3,4-dihydro-2H-pyrrole-2-carboxamido) hexanoic acid]: the “incorporation into protein (full-length FAS-TE)” value in data set [1] (Escherichia coli cells with only pylS and pylT genes) is listed as “incorporated with high efficiency; also recorded: incorporated into proteins”. Also, in data set [1] (purified FAS-TE from HK100 cells with pylS/pylT genes only (lanes 1-4)), the Bradford was determined as 0.539 mg/25 ml.

`Nc1ccc([N+](=O)[O-])cc1C(=O)c1ccccc1` [2-ANBP, 2-amino-5-nitro-benzophenone]: the solubility result in data set [2] is on record as “low solubility”.

Consider `N[C@@H](CCCCNC(=O)OC1CCCC1)C(=O)O` [CYC, N-ε-cyclopentyloxycarbonyl-L-lysine, reference compound], for which, in data set [3], the “production of full-length hRBP4 (mutant #6) in the presence of synthetic pyrrolysine analogue” value is “protein production to a level similar to D-ornithine; also recorded: measurable protein band”.

As to `N=C(N)NCCC[C@@H](N)C(=O)O` [D-arginine], the “production of full-length hRBP4 Phe122PCL protein in the presence of putative precursor” value (“production … of putative precursor” for short) in data set [4] was “above background protein production”.

Regarding `N[C@H](CCC(=O)O)C(=O)O` [D-glutamic acid], the “production … of putative precursor” value in data set [4] is reported as “did not result in full-length protein production above background”.

As for `NCCC[C@@H](N)C(=O)O` [D-ornithine], in data set [4], the “production … of putative precursor” value is “measurable protein band”.

For `O=C(O)[C@H]1CCCN1` [D-proline], the “production … of putative precursor” value in data set [4] is on record as “did not result in full-length protein production above background”.

For the molecule `NCCC[C@@H](N)C(=O)NCCCC[C@H](N)C(=O)O` [Lys-Nε-D-ornithine, (2S)-2-amino-6-((R)-2,5-diaminopentanamido)hexanoic acid], the entries for the “full-length protein production / PCL biosynthesis from precursor” value in data set [1] (listed as Lys-Nε-D-Orn) and in data set [1] (listed as Lys-Nε-D-orn) were “resulted in protein expression with PCL incorporated at the amber codon” and “substantial amounts of full-length protein”, respectively. In data set [1] (setting [7]), this molecule showed a Bradford of 1.66 mg/25 ml. In addition, in data set [5], the “substrate for PylD” value is given as “substrate for PylD”.

Consider `O=C(O)C1=NCCC1` [P2C, 3,4-dihydro-2H-pyrrole-5-carboxylate], for which the “full-length protein production / PCL biosynthesis from precursor” value in data set [1] is “failed to produce full-length protein; also recorded: not sufficient to support PCL biosynthesis”. Besides, the Bradford in data set [1] (setting [7]) is 0.103 mg/25 ml.

In the case of `CC(=O)CC(=O)NCCCC[C@H](N)C(=O)O` [TU3000-016, (S)-2-amino-6-(3-oxobutanamido)hexanoic acid hydrochloride], in data set [6], the compound stability result was “not stable”. Also, in data set [3] (hydrochloride), the “production of full-length hRBP4 (mutant #6) in the presence of synthetic pyrrolysine analogue” value is recorded as “measurable but much lower incorporation; also recorded: viable substrate for the pylS tRNA synthetase”.

Source of the values: patent publication US9624520B2, “Biosynthetically generated pyrroline-carboxy-lysine and site specific protein modifications via chemical derivatization of pyrroline-carboxy-lysine and pyrrolysine residues” (Novartis AG, priority 2008, dated 2017).
